Data reported in patent US11066447B2, “Aureobasidium derivatives and methods of synthesis” (AureoGen Biosciences, Inc., priority 2016, dated 2021).
Values after ≈ are worked out from the molar mass of the structure shown. Read-outs that look alike come from different tables or passages of the source. Numbered stars: 1 amine (or outer) side, 2 acyl side, 3 side chain; on linkers, the order of the positions; unused ones are H or OH. Square brackets hold non-standard residues; d marks the D form. Peptide text beside a SMILES is read from it. X19 = CN([C@@H](Cc1cccc(-c2ccc(OCc3ccccc3)cc2)c1)C(=O)[*:2])[*:1]; X3 = CN1CCN(c2ccc(-c3cccc(C[C@@H](C(=O)[*:2])N(C)[*:1])c3)cn2)CC1; X9 = CN1CCN(c2cccc(-c3cccc(C[C@@H](C(=O)[*:2])N(C)[*:1])c3)n2)CC1; Hmp(2R,3S) = CC[C@H](C)[C@@H](O)C(=O)O; NMeVal(β-OH) = CN[C@H](C(=O)O)C(C)(C)O; NMeV = CN[C@H](C(=O)O)C(C)C

Columns and labels:
[1] = system: C. neoformans MMX 0634 ATCC 90112; assay: MIC assay (CLSI microdilution); assay type: cell-based; details: Cryptococcus neoformans, read-out: MIC
[2] = system: C. albicans MMX 2000 ATCC 10231; assay: MIC assay (CLSI microdilution); assay type: cell-based; details: Candida albicans, ATCC10231, RPMI plus 0.002% Tween-80; read-out: MIC
[3] = system: A. fumigatus MMX 6782 ATCC 13073; assay: MIC/MEC assay (CLSI microdilution); assay type: cell-based; details: Aspergillus fumigatus, ATCC13073, 48 h
Method in brief: (§1)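 CLSI microdilution; RPMI-1640 + 0.002% Tween-80 (MMX 5280 additionally without Tween). Two-fold dilution series, compounds from EtOH stocks, amphotericin B from DMSO, tested 0.06-64 μg/mL. Inoculum ~0.2-2.5×10^4 CFU/mL final.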

[4] = system: A. niger MMX 0624 ATCC 16888; assay: MIC/MEC assay (CLSI microdilution); assay type: cell-based; details: for minimal effective concentration: RPMI plus 0.002% Tween-80, read-out: MEC
Method in brief: as §1

[5] = system: A. fumigatus MMX 6781 ATCC MYA-4609; assay: MIC/MEC assay (CLSI microdilution); assay type: cell-based; details: Aspergillus fumigatus; for MIC: 48 h, RPMI plus 0.002% Tween-80, read-out: MIC; for minimal effective concentration: RPMI plus 0.002% Tween-80, 48 hr
Method in brief: as §1

[6] = system: A. fumigatus from Aureogen; assay: MIC/MEC assay (CLSI microdilution); assay type: cell-based; details: Aspergillus fumigatus, 48 h; for minimal effective concentration: RPMI plus 0.002% Tween-80; for MIC: RPMI plus 0.002% Tween-80, read-out: MIC
Method in brief: as §1

[7] = system: A. fumigatus MMX 5944; assay: MIC/MEC assay (CLSI microdilution); assay type: cell-based; details: Aspergillus fumigatus, MMX5944, 48 h; for minimal effective concentration: RPMI plus 0.002% Tween-80; for MIC: RPMI plus 0.002% Tween-80, read-out: MIC
Method in brief: as §1

[8] = system: A. flavus MMX 5948; assay: MIC/MEC assay (CLSI microdilution); assay type: cell-based; details: Aspergillus flavus, MMX5948, 48 h
Method in brief: as §1

[9] = system: C. parapsilosis MMX 2323 ATCC 22019; assay: MIC assay (CLSI microdilution); assay type: cell-based, Candida parapsilosis
Method in brief: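 Broth microdilution MIC testing of Candida parapsilosis ATCC 22019 followed CLSI methods in RPMI-1640, with or without 0.002% Tween-80. Yeast grown 48 hours at 35° C on Sabouraud dextrose agar was suspended to a 0.5 McFarland standard and diluted 1:100 to roughly 0.5-2.5×10^3 CFU/mL. The MIC was the lowest concentration preventing visible growth.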

[10] = system: C. albicans MMX 2000 ATCC 10231; assay: MIC assay (CLSI microdilution); assay type: cell-based; details: Candida albicans
[11] = system: A. fumigatus MMX 5280 ATCC MYA-3626; assay: MIC/MEC assay (CLSI microdilution); assay type: cell-based, Aspergillus fumigatus
Method in brief: as §1

[12] = ATCC90112, 72 h, 72 hour, RPMI plus 0.002% Tween-80
[13] = RPMI plus 0.002% Tween-80, read-out: MEC
[14] = RPMI plus 0.002% Tween-80, read-out: MIC
[15] = Aspergillus niger, ATCC16888, 48 h
[16] = Aspergillus niger, ATCC16888, 48 h, RPMI plus 0.002% Tween-80, read-out: MIC
[17] = ATCC22019, RPMI plus 0.002% Tween-80, read-out: MIC
[18] = ATCC22019, Without Tween-80, read-out: MIC
[19] = ATCC10231, Without Tween-80, read-out: MIC
[20] = Aspergillus fumigatus, 48 h, RPMI plus 0.002% Tween-80, read-out: MEC
[21] = Aspergillus fumigatus, 48 h, RPMI plus 0.002% Tween-80, read-out: MIC
[22] = Aspergillus fumigatus, 48 h, Without Tween-80, read-out: MEC
[23] = Aspergillus fumigatus, 48 h, Without Tween-80, read-out: MIC
[24] = RPMI plus 0.002% Tween-80, 48 hr

MIC [1, 12]	MIC [2]	MIC [3, 14]	MIC [4, 16]	MIC [5]	MIC [6]	MIC [7]	MIC [8, 14]	MIC [9, 17]	MIC [9, 18]	MIC [10, 19]	MIC [11, 21]	Compound	minimal effective concentration [3, 13]	minimal effective concentration [4, 15]	minimal effective concentration [5]	minimal effective concentration [6]	minimal effective concentration [7]	minimal effective concentration ([8]; RPMI plus 0.002% Tween-80)	minimal effective concentration [11, 20]	minimal effective concentration [11, 22]	further results
0.06 µg/mL	0.004 µg/mL	0.12 µg/mL	0.03 µg/mL	0.12 µg/mL	0.06 µg/mL	0.5 µg/mL	0.5 µg/mL	0.03 µg/mL	0.5 µg/mL (≈ 0.392 µM)	0.5 µg/mL (≈ 0.392 µM)	0.25 µg/mL	CC[C@H](C)[C@@H]1NC(=O)[C@@H]2CCCN2C(=O)[C@H](Cc2cccc(-c3cccc(N4CCN(C)CC4)n3)c2)N(C)C(=O)[C@H](Cc2ccccc2)NC(=O)[C@H](C(C)C)N(C)C(=O)[C@@H]([C@@H](C)CC)OC(=O)[C@H](C(C)(C)O)N(C)C(=O)[C@H](CC(C)C)NC(=O)[C@H](C(C)C)N(C)C1=O [Compound 33] (cyclo(F[X9]PI[NMeV]L[NMeVal(β-OH)][Hmp(2R,3S)][NMeV]))	0.06 µg/mL	0.03 µg/mL	0.03 µg/mL	0.06 µg/mL	0.5 µg/mL	0.12 µg/mL	0.015 µg/mL	0.5 µg/mL	MIC [11, 23]: 1 µg/mL (≈ 0.783 µM)
–	–	–	–	–	–	–	–	–	–	–	–	CC[C@H](C)[C@@H]1NC(=O)[C@@H]2CCCN2C(=O)[C@H](Cc2cccc(-c3ccc(OCc4ccccc4)cc3)c2)N(C)C(=O)[C@H](Cc2ccccc2)NC(=O)[C@H](C(C)C)N(C)C(=O)[C@@H]([C@@H](C)CC)OC(=O)[C@H](C(C)(C)O)N(C)C(=O)[C@H](CC(C)C)NC(=O)[C@H](C(C)C)N(C)C1=O [Compound 13] (cyclo(F[X19]PI[NMeV]L[NMeVal(β-OH)][Hmp(2R,3S)][NMeV]))	–	–	–	–	–	–	–	–	MIC ([3]; RPMI plus 0.002% Tween-80): > 64 µg/mL; minimal effective concentration ([3]; read-out: MEC, RPMI plus 0.002% Tween-80): 1 µg/mL; MEC [4, 24]: 2 µg/mL; MIC [4, 24]: 8 µg/mL; MIC ([8]; RPMI plus 0.002% Tween-80): > 64 µg/mL; MIC ([9]; ATCC22019, RPMI plus 0.002% Tween-80): > 64 µg/mL; MIC ([9]; ATCC22019, Without Tween-80): > 64 µg/mL; MIC ([10]; ATCC10231, RPMI plus 0.002% Tween-80): 0.5 µg/mL; minimal effective concentration ([11]; Aspergillus fumigatus, 48 h, read-out: MEC, RPMI plus 0.002% Tween-80): > 64 µg/mL; minimal effective concentration ([11]; Aspergillus fumigatus, 48 h, read-out: MEC, Without Tween-80): > 64 µg/mL; MIC ([11]; Without Tween-80, 48 hr): >64/>64 μg/mL
0.12 µg/mL	0.008 µg/mL	0.12 µg/mL	0.015 µg/mL	0.12 µg/mL	0.12 µg/mL	0.12 µg/mL	0.015 µg/mL	0.03 µg/mL	1 µg/mL (≈ 0.783 µM)	0.5 µg/mL (≈ 0.392 µM)	0.25 µg/mL	CC[C@H](C)[C@@H]1NC(=O)[C@@H]2CCCN2C(=O)[C@H](Cc2cccc(-c3ccc(N4CCN(C)CC4)nc3)c2)N(C)C(=O)[C@H](Cc2ccccc2)NC(=O)[C@H](C(C)C)N(C)C(=O)[C@@H]([C@@H](C)CC)OC(=O)[C@H](C(C)(C)O)N(C)C(=O)[C@H](CC(C)C)NC(=O)[C@H](C(C)C)N(C)C1=O [Compound 20] (cyclo(F[X3]PI[NMeV]L[NMeVal(β-OH)][Hmp(2R,3S)][NMeV]))	0.03 µg/mL	0.008 µg/mL	0.06 µg/mL	0.03 µg/mL	0.015 µg/mL	0.008 µg/mL	0.06 µg/mL	0.5 µg/mL	MIC ([1]; ATCC90112, RPMI plus 0.002% Tween-80): 0.03 µg/mL; MIC ([9]; Without Tween-80): 2 µg/mL (≈ 1.57 µM); MIC [11, 23]: 1 µg/mL (≈ 0.783 µM); MEC ([11]; Without Tween-80, 48 hr): 1 µg/mL; MIC ([11]; Without Tween-80, 48 hr): 2 µg/mL (≈ 1.57 µM)
